Test [1] deals with H929 human cancer cell lines. Kind of test: Cellular viability / proliferation (Cell TiterGlo, 72 h). The format is cell-based. In outline: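 Cells were seeded at 1,000 cells/well in medium with 10% FBS and dosed 24 h later with a 2-fold serial dilution of compound (top concentration 50 μM, final DMSO <1%).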
In general terms: Cellular ATP, detected with luciferase, serves as a proxy for viable cell number.

A further test has as its target Mcl-1 (Homo sapiens (Human), UniProt Q07820). Kind of test: Fluorescence polarization anisotropy (FPA) competition assay, FITC-Bak or FITC-Bim BH3 peptide. The format is binding. As to conditions: read-out: Ki for Inhibition of Mcl-1 by FPA assay.
Setting [2] is: H929 cells, 72 h, Cell TiterGlo, 10% FBS, read-out: GI50 on cellular proliferation of H929 human cancer cell lines.
Setting [3] is: Homo sapiens, NCI-H929, 72 h, read-out: GI50 on cellular proliferation of H929 human cancer cell lines, H929 cells, 72 h, Cell TiterGlo, 10% FBS.
[4] abbreviates: read-out: GI50 on cellular proliferation of H929 human cancer cell lines, H929 cells, 72 h, Cell TiterGlo, 10% FBS.

Among the data in patent publication US11596639B2, “Substituted indole Mcl-1 inhibitors” (Vanderbilt University, priority 2016, dated 2023) are GI50 and Ki values, retold here.

Read-outs that look alike come from different tables or passages of the source.

Mcl-1, sequence (Q07820 172-327): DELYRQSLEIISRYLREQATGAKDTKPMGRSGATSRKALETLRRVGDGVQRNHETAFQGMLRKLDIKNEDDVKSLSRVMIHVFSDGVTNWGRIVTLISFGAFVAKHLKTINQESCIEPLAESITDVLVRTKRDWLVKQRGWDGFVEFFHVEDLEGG

`Cc1cc(OCCCc2c3n(c4c(-c5c(C)nc(CN6CCCC6)nc5C)c(Cl)ccc24)CCCN(c2cn(C)c4ccc(C(=O)O)cc24)C3=O)cc(C)c1Cl` [Example 373]: the GI50 in test [1] (setting [2]) was 1200 nM. In addition, the Ki – broadly, the equilibrium dissociation constant of an inhibitor or competing ligand from its target – at Mcl-1 was 1.6 nM.
With `Cc1cc(OCCCc2c3n(c4c(-c5c(C)nn(C)c5C)c(Cl)ccc24)CCCN(c2cc(C(=O)O)c4cnn(CCN(C)C)c4c2)C3=O)cc(C)c1Cl` [Example 30, 6-[8-Chloro-11-[3-(4-chloro-3,5-dimethyl-phenoxy)propyl]-1-oxo-7-(1,3,5-trimethylpyrazol-4-yl)-4,5-dihydro-3H-[1,4]diazepino[1,2-a]indol-2-yl]-1-[2-(dimethylamino)ethyl]indazole-4-carboxylic acid], the GI50 in test [1] (setting [3]) was determined as 5400 nM. The Ki on Mcl-1 was 1.2 nM.
On the same counts, the results for `Cc1cc(OCCCc2c3n(c4c(-c5c(C)nn(C)c5C)c(Cl)ccc24)CCCN(c2cc(C(=O)O)c4nnn(C)c4c2)C3=O)cc(C)c1Cl` [Example 4, 6-[8-Chloro-11-[3-(4-chloro-3,5-dimethyl-phenoxy)propyl]-1-oxo-7-(1,3,5-trimethylpyrazol-4-yl)-4,5-dihydro-3H-[1,4]diazepino[1,2-a]indol-2-yl]-1-methyl-benzotriazole-4-carboxylic acid] are 8700 nM and 3.3 nM.
With `Cc1cc(OCCCc2c3n(c4c(-c5c(C)nn(C)c5C)c(Cl)ccc24)[C@H](C)CN(c2coc4ccccc24)C3=O)cc(C)c1Cl` (single isomer, unassigned) [Example 246], the GI50 in test [1] (setting [4]) turned out to be 5300 nM. Also, the inhibition constant (Ki) at Mcl-1 was 8.6 nM.
`Cc1cc(OCCCc2c3n(c4c(-c5c(C)nn(C)c5C)c(Cl)ccc24)[C@H](C)CN(c2c(C(=O)O)ccc4ccccc24)C3=O)cc(C)c1Cl` [Example 190, (R)-1-(7-Chloro-10-(3-(4-chloro-3,5-dimethylphenoxy)propyl)-4-methyl-1-oxo-6-(1,3,5-trimethyl-1H-pyrazol-4-yl)-3,4-dihydropyrazino[1,2-a]indol-2(1H)-yl)-2-naphthoic acid]: in test [1] (setting [3]), the GI50 stood at 2200 nM. Further, the Ki on Mcl-1 was less than 1 nM.
On the same counts, the results for `CC[C@@H]1Cn2c(c(CCCOc3cc(C)c(Cl)c(C)c3)c3ccc(Cl)c(-c4c(C)nn(C)c4C)c32)C(=O)N1Cc1ccc(C(=O)O)cn1` [Example 20, (R)-6-((7-chloro-10-(3-(4-chloro-3,5-dimethylphenoxy)propyl)-3-ethyl-1-oxo-6-(1,3,5-trimethyl-1H-pyrazol-4-yl)-3,4-dihydropyrazino[1,2-a]indol-2(1H)-yl)methyl)nicotinic acid] are 6500 nM and 2.5 nM.
For `Cc1cc(OCCCc2c3n(c4c(-c5c(C)nn(C)c5C)c(Cl)ccc24)[C@H](C)CN(c2cn(C)c4ccc(C(=O)O)cc24)C3=O)ccc1Cl` [Example 407, (R)-3-(7-Chloro-10-(3-(4-chloro-3-methylphenoxy)propyl)-4-methyl-1-oxo-6-(1,3,5-trimethyl-1H-pyrazol-4-yl)-3,4-dihydropyrazino[1,2-a]indol-2(1H)-yl)-1-methyl-1H-indole-5-carboxylic acid] the same measures were 490 nM and 1.1 nM.
Consider `Cc1cc(OCCCc2c3n(c4c(-c5c(C)nn(C)c5C)c(Cl)ccc24)[C@H](C)CN(c2ccc4c(C(=O)O)cccc4n2)C3=O)cc(C)c1Cl` [Example 157, (R)-2-(7-Chloro-10-(3-(4-chloro-3,5-dimethylphenoxy)propyl)-4-methyl-1-oxo-6-(1,3,5-trimethyl-1H-pyrazol-4-yl)-3,4-dihydropyrazino[1,2-a]indol-2(1H)-yl)quinoline-5-carboxylic acid], for which the GI50 in test [1] (setting [3]) turned out to be 6400 nM. Also, at Mcl-1, the Ki stood at 2.5 nM.
For `Cc1cc(OCCCc2c3n(c4c(-c5c(C)nn(C)c5C)c(Cl)ccc24)[C@H](C)CN(c2cn(C)c4ccc(C(=O)NCc5ccccn5)cc24)C3=O)cc(C)c1Cl` [Example 281, 3-[(4R)-7-chloro-10-[3-(4-chloro-3,5-dimethyl-phenoxy)propyl]-4-methyl-1-oxo-6-(1,3,5-trimethylpyrazol-4-yl)-3,4-dihydropyrazino[1,2-a]indol-2-yl]-1-methyl-N-(2-pyridylmethyl)indole-5-carboxamide] the same measures were 1400 nM and 2.2 nM.
For `Cc1cc(OCCCc2c3n(c4c(-c5c(C)nn(C)c5C)c(Cl)ccc24)[C@H](C)CN(c2cccc4cc(C(=O)O)[nH]c24)C3=O)cc(C)c1Cl` [Example 233, 7-[(4R)-7-chloro-10-[3-(4-chloro-3,5-dimethyl-phenoxy)propyl]-4-methyl-1-oxo-6-(1,3,5-trimethylpyrazol-4-yl)-3,4-dihydropyrazino[1,2-a]indol-2-yl]-1H-indole-2-carboxylic acid], the GI50 in test [1] (setting [3]) is 1400 nM. Further, the Ki at Mcl-1 was less than 1 nM.
As for `Cc1cc(OCCCc2c3n(c4c(-c5c(C)nn(C)c5C)c(Cl)ccc24)[C@H](C)CN(c2cc(OCc4ccccc4)cc4cc(C(=O)O)n(C)c24)C3=O)cc(C)c1Cl` [Example 345, (P, R)-5-(Benzyloxy)-7-(7-chloro-10-(3-(4-chloro-3,5-dimethylphenoxy)propyl)-4-methyl-1-oxo-6-(1,3,5-trimethyl-1H-pyrazol-4-yl)-3,4-dihydropyrazino[1,2-a]indol-2(1H)-yl)-1-methyl-1H-indole-2-carboxylic acid], in test [1] (setting [2]), the GI50 turned out to be 1800 nM. In addition, the inhibitory constant (Ki) at Mcl-1 worked out at 3.5 nM.
On to `COCCOc1ccc(N2C[C@@H](C)n3c(c(CCCOc4cc(C)c(Cl)c(C)c4)c4ccc(Cl)c(-c5c(C)nn(C)c5C)c43)C2=O)c2c1cc(C(=O)O)n2C` [Example 325, (M, R)-7-(7-Chloro-10-(3-(4-chloro-3,5-dimethylphenoxy)propyl)-4-methyl-1-oxo-6-(1,3,5-trimethyl-1H-pyrazol-4-yl)-3,4-dihydropyrazino[1,2-a]indol-2(1H)-yl)-4-(2-methoxyethoxy)-1-methyl-1H-indole-2-carboxylic acid], for which the GI50 in test [1] (setting [2]) stood at 290 nM. Besides, the inhibition constant (Ki) at Mcl-1 is less than 1 nM.
Turning to `Cc1cc(OCCCc2c3n(c4c(-c5c(C)nn(C)c5C)c(Cl)ccc24)[C@H](C)CN(c2cccc4c2ccn4CC(=O)O)C3=O)cc(C)c1Cl` [Example 134, (R)-2-(4-(7-Chloro-10-(3-(4-chloro-3,5-dimethylphenoxy)propyl)-4-methyl-1-oxo-6-(1,3,5-trimethyl-1H-pyrazol-4-yl)-3,4-dihydropyrazino[1,2-a]indol-2(1H)-yl)-1H-indol-1-yl)acetic acid], the GI50 in test [1] (setting [3]) came to 11000 nM. Also, the inhibition constant (Ki) at Mcl-1 is less than 1 nM.
In the case of `Cc1cc(OCCCc2c3n(c4c(-c5c(C)nn(C)c5C)c(Cl)ccc24)[C@H](C)CN(c2cc(C(=O)O)c4ccccc4c2)C3=O)cc(C)c1Cl` [Example 188, (R)-3-(7-Chloro-10-(3-(4-chloro-3,5-dimethylphenoxy)propyl)-4-methyl-1-oxo-6-(1,3,5-trimethyl-1H-pyrazol-4-yl)-3,4-dihydropyrazino[1,2-a]indol-2(1H)-yl)-1-naphthoic acid], the GI50 in test [1] (setting [3]) was found to be 2700 nM. Further, on Mcl-1, the Ki was 6.4 nM.
For the compound `Cc1cc(OCCCc2c3n(c4c(-c5c(C)nn(C)c5C)c(Cl)ccc24)[C@H](C)CN(c2cccc4cc(C(N)=O)n(C)c24)C3=O)cc(C)c1Cl` [Example 270, 7-[(4R)-7-chloro-10-[3-(4-chloro-3,5-dimethyl-phenoxy)propyl]-4-methyl-1-oxo-6-(1,3,5-trimethylpyrazol-4-yl)-3,4-dihydropyrazino[1,2-a]indol-2-yl]-1-methyl-indole-2-carboxamide], in test [1] (setting [4]), the GI50 is 310 nM. In addition, the Ki on Mcl-1 was 1.1 nM.
On the same counts, the results for `Cc1cc(OCCCc2c3n(c4c(-c5c(C)nn(C)c5C)c(Cl)ccc24)[C@H](C)CN(c2cccc4cc(C(N)=O)n(C)c24)C3=O)cc(C)c1Cl` [Example 377, (R)-7-(7-chloro-10-(3-(4-chloro-3,5-dimethylphenoxy)propyl)-4-methyl-1-oxo-6-(1,3,5-trimethyl-1H-pyrazol-4-yl)-3,4-dihydropyrazino[1,2-a]indol-2(1H)-yl)-1-methyl-1H-indole-2-carboxamide] are 630 nM and 4.9 nM.
Consider `COc1ccc(N2C[C@@H](C)n3c(c(CCCOc4cc(C)c(Cl)c(C)c4)c4ccc(Cl)c(-c5c(C)ncnc5C)c43)C2=O)c2c1cc(C(=O)O)n2Cc1ccccn1` [Example 302, 7-[(4R)-7-chloro-10-[3-(4-chloro-3,5-dimethyl-phenoxy)propyl]-6-(4,6-dimethylpyrimidin-5-yl)-4-methyl-1-oxo-3,4-dihydropyrazino[1,2-a]indol-2-yl]-4-methoxy-1-(2-pyridylmethyl)indole-2-carboxylic acid], for which the GI50 in test [1] (setting [3]) was less than 200 nM. Moreover, on Mcl-1, the Ki is less than 1 nM.
With `Cc1cc(OCCCc2c3n(c4c(-c5c(C)nn(C)c5C)c(Cl)ccc24)[C@H](C)CN(c2cccc4c2cc(C(=O)O)n4CCN2CCOCC2)C3=O)cc(C)c1Cl` [Example 367, (R)-4-(7-Chloro-10-(3-(4-chloro-3,5-dimethylphenoxy)propyl)-4-methyl-1-oxo-6-(1,3,5-trimethyl-1H-pyrazol-4-yl)-3,4-dihydropyrazino[1,2-a]indol-2(1H)-yl)-1-(2-morpholinoethyl)-1H-indole-2-carboxylic acid], in test [1] (setting [3]), the GI50 worked out at 400 nM. Also, at Mcl-1, the Ki was 1.2 nM.
Consider `Cc1cc(OCCCc2c3n(c4c(-c5c(C)nn(C)c5C)c(Cl)ccc24)[C@H](C)CN(c2cn(COCC[Si](C)(C)C)c4ccc(C(=O)O)cc24)C3=O)cc(C)c1Cl` [Example 231, (R)-3-(7-Chloro-10-(3-(4-chloro-3,5-dimethylphenoxy)propyl)-4-methyl-1-oxo-6-(1,3,5-trimethyl-1H-pyrazol-4-yl)-3,4-dihydropyrazino[1,2-a]indol-2(1H)-yl)-1-((2-(trimethylsilyl)ethoxy)methyl)-1H-indole-5-carboxylic acid], for which the GI50 in test [1] (setting [3]) worked out at 2700 nM. The Ki at Mcl-1 was 1.2 nM.
